From patent publication US5140009A (Tap Pharmaceuticals, Inc., priority 1990, dated 1992) come the findings set out here.

Numbered stars: 1 amine (or outer) side, 2 acyl side, 3 side chain; on linkers, the order of the positions; unused ones are H or OH. Square brackets hold non-standard residues; d marks the D form. Peptide text beside a SMILES is read from it. * marks the point of attachment. Propanoyl(3-indol-3-yl) = O=C(CCc1c[nH]c2ccccc12)*; Propanoyl(3-(4-F-phenyl)) = O=C(CCc1ccc(F)cc1)*; Propanoyl(3-(4-Cl-Ph)) = O=C(CCc1ccc(Cl)cc1)*; Acetyl(2-naphthyl) = O=C(Cc1ccc2ccccc2c1)*; 1Nal = N[C@@H](Cc1cccc2ccccc12)C(=O)O; d1Nal = N[C@H](Cc1cccc2ccccc12)C(=O)O; NMeY = CN[C@@H](Cc1ccc(O)cc1)C(=O)O; hhPhe = N[C@@H](CCCc1ccccc1)C(=O)O; X11 = CN(C)c1ccc(C=CC(=O)*)cc1; Nicotinoyl = O=C(c1cccnc1)*; Picolinoyl = O=C(c1ccccn1)*; Morpholide = C1CN(*)CCO1; CO = O=C([*:1])[*:2]; Bn = c1ccc(C*)cc1

One assay deals with male castrate rats. In words: In vivo LH Inhibiton. To be noted: table 4, 30 ug/kg subcutaneously by bolus injection, AUC of log (LHt /LHi). More on the design: species or system rat. The method, then:
(c) In vivo LH Inhibiton. The compound to be tested is administered at 30 ug/kg subcutaneously by bolus injection to male castrate rats and blood samples are collected periodically over 24 hours. The AUC (area under the curve) of the LH suppression data as a function of time is calculated using the formula log (LHt /LHi) wherein LHt is the LH concentration in the blood at time t and LHi is the initial baseline LH concentration in the blood. The AUC values are negative numbers.
Turning to “(3-10)[N-(3-(4-Fluorophenyl)propionyl)-D-Thia^3 -NMeTyr^5 -D-Lys^6 -D-Ala^ ]LHRH [Compound 166]”, the “AUC (24 hr. after 30 ug/kg)” value is on record as -208. Same read-out and setting: next, “(3-10)[N-(3-(4-Fluorophenyl)propionyl)-D-1-Nal^3 -D-Lys^6 (N-epsilon-4-methoxybenzoyl)-Lys^8 (N-epsilon-isopropyl)-D-Ala^10 ]LHRH [Compound 206]”: -412. In the case of “(3-10)[N-(3-(4-Fluorophenyl)propionyl)-D-Trp^3 -NMeTyr^5 -D-Lys^6 (N-epsilon-nicotinyl)-D-Ala^10 ]LHRH [Compound 163]”, the “AUC (24 hr. after 30 ug/kg)” value is recorded as -361.

The target of another assay is T1, LHRH receptors (Rattus norvegicus, UniProt P30969).
T1 construct: Pituitary membranes containing LHRH receptors are prepared in batches from quick-frozen rat pituitaries; tissue Hilltop Labs; host or cells: rat pituitary membranes
T1 sequence (P30969 1-327): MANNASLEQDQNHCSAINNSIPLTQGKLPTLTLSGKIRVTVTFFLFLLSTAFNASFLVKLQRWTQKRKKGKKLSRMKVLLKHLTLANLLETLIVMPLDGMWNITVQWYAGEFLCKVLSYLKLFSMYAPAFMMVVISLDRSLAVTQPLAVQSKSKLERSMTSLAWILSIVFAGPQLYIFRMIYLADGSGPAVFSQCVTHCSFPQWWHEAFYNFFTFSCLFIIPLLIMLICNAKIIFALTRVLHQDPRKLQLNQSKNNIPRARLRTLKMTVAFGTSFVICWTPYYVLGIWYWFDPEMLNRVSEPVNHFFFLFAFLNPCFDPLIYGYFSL
In words: Receptor Binding (radioligand receptor binding assay). The following applies: table 3; rat pituitary membranes, radioiodinated [D-Leu^6 -des Gly^10 ]-LHRH ethyl amide 50 pM, 2 hours at 4° C.; read-out: Receptor Binding pkI (converted).
Take `CCNC(=O)[C@@H]1CCCN1C(=O)[C@H](CCCN=C(N)N)NC(=O)[C@H](CC(C)C)NC(=O)[C@@H](Cc1c[nH]c2ccccc12)NC(=O)[C@H](Cc1ccc(O)cc1)NC(=O)[C@H](CO)NC(=O)[C@H](Cc1ccc(O)cc1)NC(=O)CCc1ccc(Cl)cc1` [Compound 87, (3-9)[N-(3-(4-Chlorophenyl)propionyl) -Tyr^3 -D-Trp^6 -Pro^9 NHEt]LHRH] ({Propanoyl(3-(4-Cl-Ph))}-YSY[dW]LRP-NHEt): the Ki is 0.129 nM. As for `CCNC(=O)[C@@H]1CCCN1C(=O)[C@H](CCCNC(=N)N)NC(=O)[C@H](CC(C)C)NC(=O)[C@@H](CC(C)C)NC(=O)[C@H](Cc1ccc(O)cc1)NC(=O)[C@H](CO)NC(=O)[C@H](Cc1c[nH]c2ccccc12)NC(=O)C=Cc1ccc(N(C)C)cc1` [Compound 64, (3-9)[N-((para-Dimethylamino)cinnamoyl)-Trp^3 -D-Leu^6 -Pro^9 -NHEt]LHRH] (X11-WSY[dL]LRP-NHEt), the Ki was 437 nM.

Regarding `CCNC(=O)[C@@H]1CCCN1C(=O)[C@H](CCCNC(=N)N)NC(=O)[C@H](CC(C)C)NC(=O)[C@@H](CCCCNC(=O)c1ccccn1)NC(=O)[C@H](Cc1ccc(O)cc1)NC(=O)[C@H](CO)NC(=O)CCc1c[nH]c2ccccc12` [Compound 53] ({Propanoyl(3-indol-3-yl)}-SY[dK](Picolinoyl)LRP-NHEt), the Ki is 27.5 nM. On the same count and under the same terms, under `CCNC(=O)[C@@H]1CCCN1C(=O)[C@H](CCCN=C(N)N)NC(=O)[C@H](CC(C)C)NC(=O)[C@@H](Cc1ccc(O)cc1)NC(=O)[C@H](Cc1ccc(O)cc1)NC(=O)[C@H](CO)NC(=O)[C@H](Cc1c[nH]c2ccccc12)NC(=O)CCc1ccc(F)cc1` [Compound 92, (3-9)[N-(3-(4-Fluorophenyl)propionyl) -Trp^3 -D-Tyr^6 -Pro^9 NHEt]LHRH] ({Propanoyl(3-(4-F-phenyl))}-WSY[dY]LRP-NHEt) stands 0.0316 nM; under `CCNC(=O)[C@@H]1CCCN1C(=O)[C@H](CCCNC(=N)N)NC(=O)[C@H](CC(C)C)NC(=O)[C@@H](Cc1c[nH]c2ccccc12)NC(=O)[C@H](Cc1ccc(O)cc1)NC(=O)[C@H](COCc1ccccc1)NC(=O)Cc1ccc2ccccc2c1` [Compound 12, (4-9)[N-(2-Naphthylacetyl)-Ser^4 (OBzl)-D-Trp^6 -Pro^9 -NHEt]LHRH] ({Acetyl(2-naphthyl)}-S(Bn)Y[dW]LRP-NHEt), 1.23 nM. On to `CCNC(=O)[C@@H]1CCCN1C(=O)[C@H](CCCNC(=N)N)NC(=O)[C@H](CC(C)C)NC(=O)[C@@H](Cc1c[nH]c2ccccc12)NC(=O)[C@H](Cc1ccc(O)cc1)NC(=O)[C@H](CO)NC(=O)[C@@H](Cc1c[nH]c2ccccc12)NC(=O)CCc1c[nH]c2ccccc12` [Compound 103, (3-9)[N-(3-Indolepropionyl)-D-Trp^3,6 -Pro^9 -NHEt]LHRH] ({Propanoyl(3-indol-3-yl)}-[dW]SY[dW]LRP-NHEt), for which the Ki is 0.0794 nM. Regarding `CCNC(=O)[C@@H]1CCCN1C(=O)[C@H](CCCNC(=N)N)NC(=O)[C@H](CC(C)C)NC(=O)[C@@H](Cc1c[nH]c2ccccc12)NC(=O)[C@H](Cc1ccc(O)cc1)N(C)C(=O)[C@H](CO)NC(=O)[C@H](Cc1c[nH]c2ccccc12)NC(=O)[C@H](Cc1ccccc1)NC(=O)N1CCOCC1` [Compound 114, (2-9)[N-(N-alpha-Morpholinocarbonyl)-Phe^2 -N-Me-Tyr^5 -D-Trp^6-Pro^9 -NHEt]LHRH] ({Morpholide-CO}-FWS[NMeY][dW]LRP-NHEt), the Ki was 0.00575 nM. As for `CCNC(=O)[C@@H]1CCCN1C(=O)[C@H](CCCN=C(N)N)NC(=O)[C@H](CC(C)C)NC(=O)[C@@H](CCCCNC(=O)c1cccnc1)NC(=O)[C@H](Cc1ccc(O)cc1)N(C)C(=O)[C@H](CO)NC(=O)[C@@H](Cc1c[nH]c2ccccc12)NC(=O)CCc1ccc(F)cc1` [Compound 122, N-(3-(4-Fluorophenyl)propionyl)-D-Trp-Ser-N-Me-Tyr-D -Lys(Nic)-Leu-Arg-ProNHEt] ({Propanoyl(3-(4-F-phenyl))}-[dW]S[NMeY][dK](Nicotinoyl)LRP-NHEt), the Ki is 0.00955 nM. The same measure, in the same setting: under `CCNC(=O)[C@@H]1CCCN1C(=O)[C@H](CCCNC(=N)N)NC(=O)[C@H](CC(C)C)NC(=O)[C@@H](Cc1c[nH]c2ccccc12)NC(=O)[C@H](Cc1ccc(O)cc1)NC(=O)[C@H](CO)NC(=O)[C@H](Cc1c[nH]c2ccccc12)NC(=O)C(CC(=O)N1CCOCC1)Cc1cccc2ccccc12` (single isomer, unassigned) [Compound 130] stands 0.275 nM; under `CCNC(=O)[C@@H]1CCCN1C(=O)[C@H](CCCNC(=N)N)NC(=O)[C@H](CC(C)C)NC(=O)[C@@H](Cc1c[nH]c2ccccc12)NC(=O)[C@H](Cc1ccc(O)cc1)NC(=O)[C@H](CO)NC(=O)[C@H](Cc1c[nH]c2ccccc12)NC(=O)[C@H](Cc1cccc2ccccc12)NC(=O)N1CCOCC1` [Compound 110, (2-9)[N-(N-alpha-Morpholinocarbonyl)-1-Nal^2 -D-Trp^6 -Pro^9 NHEt]LHRH] ({Morpholide-CO}-[1Nal]WSY[dW]LRP-NHEt), 0.1 nM.

The assay is the same for the next values; noted with them: table 4; rat pituitary membranes, radioligand 50 pM, 2 hours at 4° C.; read-out: Receptor Binding pkI (converted).
For the molecule `CCNC(=O)[C@@H]1CCCN1C(=O)[C@H](CCCNC(=N)N)NC(=O)[C@H](CC(C)C)NC(=O)[C@@H](Cc1c[nH]c2ccccc12)NC(=O)[C@H](Cc1ccc(O)cc1)NC(=O)[C@H](CO)NC(=O)[C@@H]1CCCN1C(=O)CCc1ccc(F)cc1` [Compound 148, (3-9)[N-(3-(4-Fluorophenyl)propionyl) -Pro^3 -D-Trp^6 -Pro^9 NHEt]LHRH] ({Propanoyl(3-(4-F-phenyl))}-PSY[dW]LRP-NHEt), the Ki is 0.055 nM.

Take `CC(C)C[C@H](NC(=O)[C@@H](CCCCN)NC(=O)[C@H](Cc1ccc(O)cc1)N(C)C(=O)[C@H](CCCc1ccccc1)NC(=O)[C@@H](Cc1cccc2ccccc12)NC(=O)CCc1ccc(F)cc1)C(=O)N[C@@H](CCCNC(=N)N)C(=O)N1CCC[C@H]1C(=O)N[C@H](C)C(N)=O` [Compound 176, (3-10)[N-(3-(4-Fluorophenyl)propionyl)-D-1-Nal^3-hhPhe^4 -NMeTyr^5 -D-Lys^6 -D-Ala^10]LHRH] ({Propanoyl(3-(4-F-phenyl))}-[d1Nal][hhPhe][NMeY][dK]LRP[dA]-NH2): the Ki was 2.88 nM.

For `CCNC(=O)[C@@H]1CCCN1C(=O)[C@H](CCCN=C(N)N)NC(=O)[C@H](CC(C)C)NC(=O)[C@@H](Cc1c[nH]c2ccccc12)NC(=O)[C@H](Cc1ccc(O)cc1)NC(=O)[C@H](CO)NC(=O)[C@@H](Cc1ccc(O)cc1)NC(=O)CCc1ccc(F)cc1` [Compound 141, (3-9)[N-(3-(4-Fluorophenyl)propionyl) -D-Tyr^3 -D-Trp^6 -Pro^9 NHEt]LHRH] ({Propanoyl(3-(4-F-phenyl))}-[dY]SY[dW]LRP-NHEt), the Ki was 0.0257 nM.
